Here are results for 6 compounds from patent US6548687B1, “Chromium L-threonate, process for preparation of the same and their use” (priority 1998, dated 2003).

The conditions of data set [1]: for Stable Constant: coordination compound of L-threonic acid and chromic ion, deduced with computer simulation from titration curves; for pH: pH range of the coordination compound model, deduced with computer simulation.
Data set [2] is described as follows: Precipitation of chromic hydroxide as a function of pH. The class given is physicochemical.

Molecules are shown by their SMILES. Like-named read-outs stand apart in the source and are kept apart here.

Take `O=C(O)[C@H](O)[C@@H](O)CO.[O]=[Cr](=[O])([OH])[OH]` [Model B, chromate L-threonate]: in data set [1] (listed as B), the “Stable Constant” value is recorded as −0.74 ± 0.34 and the pH was 3.5-4.0.
`O=C(O)[C@H](O)[C@@H](O)CO.[O]=[Cr](=[O])([OH])[OH]` [chromate L-threonate]: the “precipitate of chromic hydroxide” value in data set [2] (even in basic condition) is listed as “no precipitate”. Also, the dissolution result (in alcohol and ether) is given as “no dissolution”; the dissolution result (in water) is recorded as “dissolution in water”.
As to `O=C(O)[C@H](O)[C@@H](O)CO.[O]=[Cr](=[O])([OH])[OH]` [Model C, chromate L-threonate], in data set [1] (listed as C), the “Stable Constant” value was −9.35 ± 0.26 and the pH result is “˜6.0”.
On to `O=C(O)[C@H](O)[C@@H](O)CO.[O]=[Cr](=[O])([OH])[OH]` [Model A, chromate L-threonate], for which, in data set [1] (listed as A), the “Stable Constant” value is recorded as −4.42 ± 0.14 and the pH entry was “˜4.5”.
For `[Cl][Cr]([Cl])[Cl]` [chromic chloride], the “pH at which solution forms precipitate” value in data set [2] was around 4.
For `O=S(=O)([O-])[O-].O=S(=O)([O-])[O-].O=S(=O)([O-])[O-].[Cr+3].[Cr+3]` [chromic sulphate], the “pH at which solution forms precipitate” value in data set [2] is around 4.
